Test [1] addresses T1, rat B1R (bradykinin receptor 1) (Rattus norvegicus, UniProt P97583).
T1 construct: expressed in transfected cells; host or cells: CHO K1 cells
T1 sequence (P97583 1-337): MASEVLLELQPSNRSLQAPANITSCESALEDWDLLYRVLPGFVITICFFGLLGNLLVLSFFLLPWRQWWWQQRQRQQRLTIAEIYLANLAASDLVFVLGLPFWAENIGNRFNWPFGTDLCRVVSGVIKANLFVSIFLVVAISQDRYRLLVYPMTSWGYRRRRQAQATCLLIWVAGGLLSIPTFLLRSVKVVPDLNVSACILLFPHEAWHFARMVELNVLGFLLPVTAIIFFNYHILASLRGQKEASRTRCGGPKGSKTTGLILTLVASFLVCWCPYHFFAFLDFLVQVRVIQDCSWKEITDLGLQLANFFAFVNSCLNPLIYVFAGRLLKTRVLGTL
Put plainly: FLIPR Ca2+ assay (Fluo-4) on CHO K1 cells stably transfected with the B1R gene of the rat (rB1R cells): % inhibition at 10 μM / IC50, agonist Des-Arg9-bradykinin. The class given is cell-based. Conditions: CHO-K1, rat B1R. In a few lines:
(§1)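 Antagonism is measured as the drop in peak Fluo-4 Ca2+ signal when the EC80 agonist follows 10–20 min compound exposure. The single-point screen uses 10 μM; IC50 uses several concentrations. Values are given as % of maximal achievable inhibition.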

Test [2] concerns the target T2, human B1R (bradykinin receptor 1) (Homo sapiens, UniProt P46663).
T2 construct: expressed in transfected cells; host or cells: CHO K1 cells
T2 sequence (P46663 1-353): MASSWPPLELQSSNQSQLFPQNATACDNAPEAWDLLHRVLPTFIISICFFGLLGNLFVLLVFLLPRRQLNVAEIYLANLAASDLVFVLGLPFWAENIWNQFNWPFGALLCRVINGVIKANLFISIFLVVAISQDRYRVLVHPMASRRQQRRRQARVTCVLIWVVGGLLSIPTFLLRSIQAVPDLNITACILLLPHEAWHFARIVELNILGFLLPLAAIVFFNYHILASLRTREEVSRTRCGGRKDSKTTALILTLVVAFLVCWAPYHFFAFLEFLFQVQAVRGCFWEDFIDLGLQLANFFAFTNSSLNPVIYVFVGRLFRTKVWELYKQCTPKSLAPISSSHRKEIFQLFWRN
Briefly: FLIPR Ca2+ assay (Fluo-4) on CHO K1 cells stably transfected with the human B1R gene (hB1R cells): % inhibition at 10 μM / IC50, agonist Lys-Des-Arg9-bradykinin. The class given is cell-based. As to conditions: CHO-K1, human B1R. A digest of the protocol:
as §1

Broadly, the inhibition is the drop in the measured response relative to a control, in per cent.

Structures are written as SMILES.

With `O=C(N[C@@H]1CCc2cc(C(=O)N3CCC4(CC3)CCN(c3ccncc3)CC4)ccc21)c1ccccc1Cl` [Example H-172, 2-chloro-N-[(1R)-5-(9-pyridin-4-yl-3,9-diazaspiro[5.5]undecane-3-carbonyl)-2,3-dihydro-1H-inden-1-yl]-benzamide], the inhibition at 10 µM in test [1] came out at 105%; in test [2] it was 99%.
Taken in the same sequence, the figures for `O=C(c1ccc2c(c1)CC[C@H]2NS(=O)(=O)c1ccccc1Cl)N1CCC2(CCN(c3ccncc3)CC2)C1` [Example H-173, 2-Chloro-N-[(1R)-5-(8-pyridin-4-yl-3,8-diazaspiro[4.5]decane-3-carbonyl)-2,3-dihydro-1H-inden-1-yl]-benzenesulfonic acid amide] were 89% and 100%.
Taken in the same sequence, the figures for `CN(C(=O)c1cc(Cl)ccc1Cl)C1CCc2ccc(C(=O)N3CCC4(CC3)CCN(c3ccncc3)CC4)cc21` (centres unmarked) [IND_CC-200, 2,5-Dichloro-N-methyl-N-[6-(9-pyridin-4-yl-3,9-diazaspiro[5.5]undecane-3-carbonyl)-2,3-dihydro-1H-inden-1-yl]-benzamide] were 102% and 100%.
Taken in the same sequence, the figures for `CN(C(=O)c1cc(C(F)(F)F)ccc1Cl)C1CCc2ccc(C(=O)N3CCC4(CC3)CCN(c3ccncc3)CC4)cc21` (centres unmarked) [IND_CC-202, 2-Chloro-N-methyl-N-[6-(9-pyridin-4-yl-3,9-diazaspiro[5.5]undecane-3-carbonyl)-2,3-dihydro-1H-inden-1-yl]-5-(trifluoromethyl)-benzamide] were 103% and 86%.
Take `CN(C(=O)c1cc(F)ccc1Cl)C1CCc2ccc(C(=O)N3CCC4(CC3)CCN(c3ccncc3)CC4)cc21` (centres unmarked) [IND_CC-203, 2-Chloro-5-fluoro-N-methyl-N-[6-(9-pyridin-4-yl-3,9-diazaspiro[5.5]undecane-3-carbonyl)-2,3-dihydro-1H-inden-1-yl]-benzamide]: the inhibition at 10 µM was found to be 103% in test [1] and 99% in test [2].
Taken in the same sequence, the figures for `O=C(NC1CCc2ccc(C(=O)N3CCC4(CC3)CCN(c3ccncc3)CC4)cc21)c1c(Cl)cccc1C(F)(F)F` (centres unmarked) [IND_CC-204, 2-Chloro-N-[6-(9-pyridin-4-yl-3,9-diazaspiro[5.5]undecane-3-carbonyl)-2,3-dihydro-1H-inden-1-yl]-6-(trifluoromethyl)-benzamide] were 102% and 99%.
Taken in the same sequence, the figures for `CC1(C)Cc2ccc(C(=O)N3CCC4(CC3)CCN(c3ccncc3)CC4)cc2C1NC(=O)c1c(Cl)cccc1C(F)(F)F` (centres unmarked) [IND_CC-206, 2-Chloro-N-[2,2-dimethyl-6-(9-pyridin-4-yl-3,9-diazaspiro[5.5]undecane-3-carbonyl)-1,3-dihydro-inden-1-yl]-6-(trifluoromethyl)-benzamide] were 103% and 100%.
In the case of `O=C(NC1CCc2ccc(C(=O)N3CCC4(CC3)CCN(c3ccncc3)CC4)cc21)c1cc(Cl)ccc1Cl` (centres unmarked) [IND_CC-207, 2,5-Dichloro-N-[6-(9-pyridin-4-yl-3,9-diazaspiro[5.5]undecane-3-carbonyl)-2,3-dihydro-1H-inden-1-yl]-benzamide], the inhibition at 10 µM in test [1] worked out at 101%; in test [2] it was 98%.
The corresponding values for `O=C(NC1CCc2ccc(C(=O)N3CCC4(CC3)CCN(c3ccncc3)C4)cc21)c1cc(Cl)ccc1Cl` (centres unmarked) [IND_CC-208, 2,5-Dichloro-N-[6-(2-pyridin-4-yl-2,8-diazaspiro[4.5]decane-8-carbonyl)-2,3-dihydro-1H-inden-1-yl]-benzamide] are 100% and 99%.
Taken in the same sequence, the figures for `O=C(NC1CCc2ccc(C(=O)N3CCC4(CC3)CCN(c3ccc(C(F)(F)F)cc3)CC4)cc21)c1cc(Cl)ccc1Cl` (centres unmarked) [IND_CC-209, 2,5-Dichloro-N-[6-[9-[4-(trifluoromethyl)-phenyl]-3,9-diazaspiro[5.5]undecane-3-carbonyl]-2,3-dihydro-1H-inden-1-yl]-benzamide] were 102% and 20%.
The corresponding values for `CC1(C)Cc2ccc(C(=O)N3CCC4(CC3)CCN(c3ccncc3)CC4)cc2C1NC(=O)c1cc(Cl)ccc1Cl` (centres unmarked) [IND_CC-210, 2,5-Dichloro-N-[2,2-dimethyl-6-(9-pyridin-4-yl-3,9-diazaspiro[5.5]undecane-3-carbonyl)-1,3-dihydro-inden-1-yl]-benzamide] are 104% and 97%.
Regarding `COc1ccc(C(=O)NC2CCc3ccc(C(=O)N4CCC5(CC4)CCN(c4ccncc4)C5)cc32)c(Cl)c1` (centres unmarked) [IND_CC-212, 2-Chloro-4-methoxy-N-[6-(2-pyridin-4-yl-2,8-diazaspiro[4.5]decane-8-carbonyl)-2,3-dihydro-1H-inden-1-yl]-benzamide], the inhibition at 10 µM in test [1] came out at 102%; in test [2] it was 58%.
Taken in the same sequence, the figures for `Cc1ccc(F)c(C(=O)NC2CCc3ccc(C(=O)N4CCC5(CC4)CCN(c4ccncc4)CC5)cc32)c1Cl` (centres unmarked) [IND_CC-214, 2-Chloro-6-fluoro-3-methyl-N-[6-(9-pyridin-4-yl-3,9-diazaspiro[5.5]undecane-3-carbonyl)-2,3-dihydro-1H-inden-1-yl]-benzamide] were 102% and 83%.
The corresponding values for `Cc1ccc(F)c(C(=O)NC2CCc3ccc(C(=O)N4CCC5(CC4)CCN(c4ccncc4)C5)cc32)c1Cl` (centres unmarked) [IND_CC-215, 2-Chloro-6-fluoro-3-methyl-N-[6-(2-pyridin-4-yl-2,8-diazaspiro[4.5]decane-8-carbonyl)-2,3-dihydro-1H-inden-1-yl]-benzamide] are 103% and 48%.
The corresponding values for `Cc1ccc(F)c(C(=O)NC2c3cc(C(=O)N4CCC5(CC4)CCN(c4ccncc4)CC5)ccc3CC2(C)C)c1Cl` (centres unmarked) [IND_CC-216, 2-Chloro-N-[2,2-dimethyl-6-(9-pyridin-4-yl-3,9-diazaspiro[5.5]undecane-3-carbonyl)-1,3-dihydro-inden-1-yl]-6-fluoro-3-methyl-benzamide] are 103% and 58%.
`O=C(NC1CCc2ccc(C(=O)N3CCC4(CC3)CCN(c3ccncc3)CC4)cc21)c1cc(C(F)(F)F)ccc1Cl` (centres unmarked) [IND_CC-217, 2-Chloro-N-[6-(9-pyridin-4-yl-3,9-diazaspiro[5.5]undecane-3-carbonyl)-2,3-dihydro-1H-inden-1-yl]-5-(trifluoromethyl)-benzamide]: the results for the inhibition at 10 µM in test [1] and in test [2] were 95% and 99%, respectively.
With `O=C(NC1CCc2ccc(C(=O)N3CCC4(CC3)CCN(c3ccncc3)C4)cc21)c1cc(C(F)(F)F)ccc1Cl` (centres unmarked) [IND_CC-218, 2-Chloro-N-[6-(2-pyridin-4-yl-2,8-diazaspiro[4.5]decane-8-carbonyl)-2,3-dihydro-1H-inden-1-yl]-5-(trifluoromethyl)-benzamide], the inhibition at 10 µM was determined as 103% in test [1] and 94% in test [2].
Turning to `CC1(C)Cc2ccc(C(=O)N3CCC4(CC3)CCN(c3ccncc3)CC4)cc2C1NC(=O)c1cc(C(F)(F)F)ccc1Cl` (centres unmarked) [IND_CC-219, 2-Chloro-N-[2,2-dimethyl-6-(9-pyridin-4-yl-3,9-diazaspiro[5.5]undecane-3-carbonyl)-1,3-dihydro-inden-1-yl]-5-(trifluoromethyl)-benzamide], the inhibition at 10 µM in test [1] was 104%; in test [2], 53%.
The corresponding values for `O=C(NC1CCc2ccc(C(=O)N3CCC4(CC3)CCN(c3ccncc3)CC4)cc21)c1cc(F)ccc1Cl` (centres unmarked) [IND_CC-220, 2-Chloro-5-fluoro-N-[6-(9-pyridin-4-yl-3,9-diazaspiro[5.5]undecane-3-carbonyl)-2,3-dihydro-1H-inden-1-yl]-benzamide] are 104% and 100%.
`O=C(NC1CCc2ccc(C(=O)N3CCC4(CC3)CCN(c3ccncc3)C4)cc21)c1cc(F)ccc1Cl` (centres unmarked) [IND_CC-221, 2-Chloro-5-fluoro-N-[6-(2-pyridin-4-yl-2,8-diazaspiro[4.5]decane-8-carbonyl)-2,3-dihydro-1H-inden-1-yl]-benzamide]: the inhibition at 10 µM was found to be 104% in test [1] and 100% in test [2].
The corresponding values for `CC1(C)Cc2ccc(C(=O)N3CCC4(CC3)CCN(c3ccncc3)CC4)cc2C1NC(=O)c1cc(F)ccc1Cl` (centres unmarked) [IND_CC-223, 2-Chloro-N-[2,2-dimethyl-6-(9-pyridin-4-yl-3,9-diazaspiro[5.5]undecane-3-carbonyl)-1,3-dihydro-inden-1-yl]-5-fluoro-benzamide] are 105% and 97%.
Taken in the same sequence, the figures for `CN(C(=O)c1cc(F)c(F)cc1Cl)C1CCc2ccc(C(=O)N3CCC4(CC3)CCN(c3ccncc3)CC4)cc21` (centres unmarked) [IND_CC-224, 2-Chloro-4,5-difluoro-N-methyl-N-[6-(9-pyridin-4-yl-3,9-diazaspiro[5.5]undecane-3-carbonyl)-2,3-dihydro-1H-inden-1-yl]-benzamide] were 103% and 100%.

These data come from patent US8455475B2 (Gruenenthal GmbH, priority 2009, dated 2013).
